“Also recorded” adds a separate entry of the source.
Assays:
SH-SY5Y = assay type: in vitro ADME; settings: not told
Excerpt: We included negative control analogs of Kinetin which prevent metabolism.

SH-SY5Y cells = experiment: H2O2 induced apoptosis, Annexin V / PI FACS assay; assay type: cell-based, human; settings: for total amount of apoptotic cells: 50 μM for 96 hours, then 400 μM H2O2 for 24 hours
Description: Apoptosis assays and PINK1 shRNA: SH-SY5Y cells (ATCC) were cultured in 1:1 mix of F12K and DMEM supplemented with 20% FBS. PINK1 shRNA lentivirus were produced using a pLKO.1 based shRNA (Sigma) by contransfection with Δ8.9 and pMGD2 vectors in HEK293T cells. SH-SY5Y cells were infected with lentivirus followed by selection with puromycin ([…]). […] Subsequently, cells were stained with Annexin V-FITC and PI and analyzed (FACS Diva) on a FACS LSRII Cytometer ([…]) Apoptosis was calculated as the difference between H2O2 treated samples and the respective control.
(§1) Overexpression of PINK1 in neuronal cells (e.g. dopaminergic (DA)) promotes survival in response to oxidative stress and other mitochondrial toxins^7. Before testing the effects of kinetin on apoptosis, we treated DA neurons with 50 μM of either kinetin or adenine and measured cell density after 10 days. […] SH-SY5Y cells were treated with 50 μM kinetin, adenine or DMSO for 96 hours, followed by 400 μM H2O2 treatment for additional 24 hours. Using a cytometry-based FACS assay involving cellular annexin V and propidium iodide staining, we determined the percentage of apoptotic cells after treatment with DMSO, adenine or kinetin.

PINK1wt mice [1] = experiment: Heart stress model (trans-aortic banding, angiotensin II); assay type: in vivo; settings: two weeks dosing, TAB or Angiotensin II; for pathological hypertrophy: 14 days
Excerpt: Stress on the heart also induces pathological hypertrophy and increased apoptosis, and serves as a good model for heart disease. We utilized trans-aortic banding (TAB) and treatment with angiotensin II to increase pressure in the heart and a model for heart attack by induced myocardial infarction. We treated mice as above with kinetin as well as adenine and vehicle controls for two weeks. We then increased pressure in the heart by performing surgery to partially occlude the aorta (TAB) or sham operation. Additionally we directly injected of a bolus of Angiotensin II or saline into the heart (Billia et al., 2011) to increase blood pressure. […] As the depletion of PINK1 leads to more pathological hypertrophy and increased apoptosis, by amplifying PINK1 activity these characteristics of heart failure will be further reduced.

PINK1wt mice [2] = experiment: Induced myocardial infarction model; assay type: in vivo; settings: two weeks dosing
Description: Utilizing mice dosed with kinetin, adenine or vehicle for two weeks, we induced myocardial infarction by ligating the left anterior descending artery at the level of the left atrial appendage (Wang et al., 2006) or sham surgery. Following infarct for 24 or 72 hours, we sacrificed the mice and analyzed the heart by TUNEL staining as cardiomyocytes are susceptible to cell death following infarct. […] These experiments replicate our results in neurons in which kinetin treatment will block apoptosis in response to a number of cellular stressors.

[3] = system: PINK1^G309D mutant expressing cells; experiment: Parkin S65 phosphorylation after CCCP, phospho specific antibodies after immuno-precipitating Parkin; assay type: cell-based; settings: S65 phosphosite
Description: Parkin phosphorylation and mitochondrial translocation assay: HeLa cells were grown in DMEM supplemented with 10% FBS. Log phase cells were plated in 24 well plates with glass coverslips (Mattek) pretreated with fibronectin. Cells were pretreated with 50 μM of the indicated compound, followed by transfection with MitoGFP, mCherry Parkin, and full length PINK1FLAG3 in a 1:4:2 ratio using Fugene 6 (Promega). Fields of cells were selected by expression of MitoGFP (6 fields/well-3 wells/condition) and imaged at five-minute intervals following depolarization with 5 μM CCCP. Quantification was performed according to published protocols^3 and by creation of a Matlab based script.
To test the PINK1-dependency of our findings, we assayed PINK1 activity by using phospho specific antibodies raised against Parkin's PINK1-specific S65 phosphosite^21 after immuno-precipitating Parkin. […] To test whether kinetin stimulated Parkin localization was due to reversible binding of kinetin to PINK1, we treated the cells with fresh medium for 96 hours before performing a new recruitment assay. Similar recruitment rates were observed following the washout (FIG. 2F). […] We followed previously published methods to calculate the percentage of GFP labeled mitochondria with mCherryParkin associated. […]

[4] = system: SH-SY5Y cells with PINK1-silencing shRNA; experiment: H2O2 induced apoptosis, Annexin V / PI FACS assay, PINK1-silencing shRNA; assay type: cell-based, human; settings: PINK1-silencing shRNA lentivirus; 50 μM 96 hours, 400 μM H2O2
Description: Apoptosis assays and PINK1 shRNA: SH-SY5Y cells (ATCC) were cultured in 1:1 mix of F12K and DMEM supplemented with 20% FBS. PINK1 shRNA lentivirus were produced using a pLKO.1 based shRNA (Sigma) by contransfection with Δ8.9 and pMGD2 vectors in HEK293T cells. SH-SY5Y cells were infected with lentivirus followed by selection with puromycin ([…]). The indicated cells were plated in 6-well plates at about 500,000 cells/well, pretreated with 50 μM of the indicated drug or DMSO for 96 hours followed by 400 μM H2O2 treatment. Subsequently, cells were stained with Annexin V-FITC and PI and analyzed (FACS Diva) on a FACS LSRII Cytometer ([…]) Apoptosis was calculated as the difference between H2O2 treated samples and the respective control.
as §1

Compound: c1coc(CNc2ncnc3[nH]cnc23)c1 [kinetin]
- membrane impermeable metabolite after incubation (SH-SY5Y): presence of a membrane impermeable metabolite
- total amount of apoptotic cells (SH-SY5Y cells): significant decrease; also recorded: blocks apoptosis
- total amount of apoptotic cells (SH-SY5Y cells; listed as Kinetin): blocks apoptosis
- total number of apoptotic cells (SH-SY5Y cells; 48 hours of treatment, then 24 hours of 400 uM hydrogen peroxide): Decrease in the total number of apoptotic cells
- total number of TUNEL positive cells, left ventricle (PINK1wt mice [1]): reduced the total number of TUNEL positive cells
- pathological hypertrophy (PINK1wt mice [1]): reduces the pathological hypertrophy
- TUNEL positive cells in the peri-infarct area (PINK1wt mice [2]; 24 or 72 hours after infarct): significant decrease in TUNEL positive cells
- scar size and level of collagen deposition (PINK1wt mice [2]; post-infarct): significant decrease in the scar size and the level of collagen deposition
- phosphorylation levels of Parkin [3]: significantly increased; also recorded: Robust increase
- total amount of apoptotic cells [4]: no kinetin effect

Compound: Nc1ncnc2nc[nH]c12 [adenine, reference compound]
- total amount of apoptotic cells (SH-SY5Y cells): no significant change
- pathological hypertrophy (PINK1wt mice [1]): not
- phosphorylation levels of Parkin [3]: not

From patent US11427588B2, “Compositions and methods for treating neurodegenerative diseases and cardiomyopathy” (THE REGENTS OF THE UNIVERSITY OF CALIFORNIA, priority 2013, dated 2022)
